Test results from patent US20260078120A1, “SUBSTITUTED PYRIDOPYRIMIDINONES” (MIRATI THERAPEUTICS, INC., priority 2022, published 2026).

Tests used:
Type in all cases: cell-based
[1] = test system: T47D (PI3Kα H1047R mutant) cells; assay: Inhibition of pAKT formation, alphaLISA SureFire Ultra AKT 1/2/3 (pS473), T47D cells; conditions: Homo sapiens, T47D
In short: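 AKT Ser473 phosphorylation was quantified by alphaLISA SureFire Ultra after roughly 1 h or 24 h compound exposure at 37 °C. Cells were T47D (12,000/well in HBSS), treated with a 10-point 1:4 series starting at 10.4 μM. Percent of control used alpelisib background and DMSO reference, and IC50 came from four-parameter logistic fitting.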

[2] = test system: T47D (PI3Kα H1047R mutant) cells; assay: CellTiter-Glo 2.0 luminescent cell viability assay, 72 hours, T47D cells
In short: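 Viability was measured by CellTiter-Glo 2.0 luminescence after approximately 72 h of compound exposure at 37° C. Plating was 1000 cells per well the day before dosing, with ten 1:4 dilutions from a 10 µM top concentration. Values as percent of vehicle were fitted by variable-slope log(inhibitor) regression to give IC50.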

[3] = test system: SKBR3 (PI3Kα wild type) cells; assay: CellTiter-Glo 2.0 luminescent cell viability assay, 72 hours, SKBR3 cells
In short: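 Viability measured via CTG luminescence following roughly 72 hours of compound exposure at 37° C. Dosing used a 10 um starting concentration diluted 1:4 over 10 points; percent-of-vehicle data fitted with a variable-slope four-parameter model for IC50.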

[4] = test system: SKBR3 (PI3Kα wild type) cells; assay: Inhibition of pAKT formation, alphaLISA SureFire Ultra AKT 1/2/3 (pS473), SKBR3 cells; conditions: Homo sapiens, SK-BR-3; Inhibition of pAKT in SKBR3 (PI3Kα wild type) cells; read-out: SKBR3 (WT) pAKT IC50 (nM) (H1047R mutant) IC50
Protocol: The ability of a compound of Formula (I) to inhibit the formation of pAKT was measured using alphaLISA Surefire Ultra AKT 1/2/3 (pS473) Assay Kit (#ALSU-PAKT-B50K) was obtained from Perkin Elmer (Waltham, MA).
To prepare assay plates for pAKT alphaLISA assays, cells were trypsinized, resuspended in fresh media, and viable cells were counted utilizing trypan blue exclusion. Prior to seeding, cells were washed with PBS and resuspended in HBSS (Gibco, #14025092). T47D (12,000/w), SKBR3(12,000/w), or MKN1(24,000/w) cells were seeded at 12 μl per well in a solid white flat bottom 384 cell culture plate (Perkin Elmer #6007680).
Immediately after seeding, cells were dosed using an Echo Liquid Handler (Beckman Coulter) with compounds at a […] starting concentration and serially diluted (1:4) for a total of 10 concentrations. […] Cells were incubated with the compounds (solubilized in DMSO) for approximately one hour or 24 hours at 37° C. After one hour (or 24 hours) of treatment, cells were lysed with 3 μl of the 5× lysis buffer (provided and incubated at room temperature for 15 min on a microtiter plate shaker). Once cells were sufficiently lysed, 7.5 μl of the acceptor bead mix (made using the manufacturers recommended dilutions) was added to each well and left on the microtiter plate shaker for 1 min prior to incubating plates at room temperature for one hour, in the absence of light. After one hour of incubation with the acceptor bead mix, 7.5 μl of the donor bead mix (made using the manufacturers recommended dilutions) was added to each well and left on the microtiter plate shaker for 1 min prior to incubating plates at room temperature overnight in the absence of light. Plates were then imaged the following day using a CLARIOstar microplate reader (BMG Labtech, Germany).
Percent of control values were calculated by subtracting the average signal from the positive control (alpelisib) treated wells from all treated wells (including DMSO control wells) and then divided by the average signal from the vehicle DMSO treated control wells. Percent of vehicle control values were plotted as log (inhibitor) vs. response-Variable slope (four parameters) for curve fitting and IC50 values were determined using XLfit.
Key: N.D. =not determined

[5] = T47D (PI3Kα H1047R mutant) cells, inhibition of pAKT (pS473) formation, approximately one hour or 24 hours treatment, read-out: T47D pAKT (H1047R mutant) IC50
[6] = Homo sapiens, T47D, 72 h, T47D (PI3Kα H1047R mutant) cells, CellTiter-Glo, approximately 72 hours, read-out: T47D (H1047R mutant) Viability IC50
[7] = Homo sapiens, SK-BR-3, 72 h, SKBR3 (PI3Kα wild type) cells, CellTiter-Glo, approximately 72 hours, read-out: SKBR3 (WT) Viability IC50

Row | IC50 [1, 5] [nM] | IC50 [2, 6] [nM] | IC50 [3, 7] [nM] | IC50 [4] [nM] | IC50 ([2]; T47D (PI3Kα H1047R mutant) cells, CellTiter-Glo, approximately 72 hours, read-out: T47D (H1047R mutant) Viability IC50) [nM] | IC50 ([3]; SKBR3 (PI3Kα wild type) cells, CellTiter-Glo, approximately 72 hours, read-out: SKBR3 (WT) Viability IC50) [nM] | Compound | IC50 ([1]; read-out: T47D pAKT (H1047R mutant) IC50 (nM)) [nM] | IC50 ([2]; Homo sapiens, T47D, 72 h, read-out: T47D (H1047R mutant) Viability IC50 (nM)) [nM] | IC50 ([3]; Homo sapiens, SK-BR-3, 72 h, read-out: SKBR3 (WT) Viability IC50 (nM)) [nM]
1 | 1.35 | 48.3 | 8970 | 1200 | – | – | Cc1cc([C@@H](C)Nc2ccccc2C(=O)O)c2nc(N3CCC(F)(F)CC3)c(C#N)c(=O)n2c1 [Example 10-23, (R)-2-((1-(3-cyano-2-(4,4-difluoropiperidin-1-yl)-7-methyl-4-oxo-4H-pyrido[1,2-a]pyrimidin-9-yl)ethyl)amino)benzoic acid] | – | – | –
2 | 375 | > 10000 | > 10000 | > 10000 | – | – | Cc1cc([C@@H](C)Nc2ccccc2C(=O)O)c2nc(N3CCS(=O)(=O)CC3)c(C#N)c(=O)n2c1 [Example 10-68, (R)-2-((1-(3-cyano-2-(1,1-dioxidothiomorpholino)-7-methyl-4-oxo-4H-pyrido[1,2-a]pyrimidin-9-yl)ethyl)amino)benzoic acid] | – | – | –
3 | > 100000 | > 10000 | > 10000 | > 10000 | – | – | Cc1ccc(-c2cc(=O)n3cc(C)cc(C(C)Nc4ccccc4C(=O)O)c3n2)cc1 (centres unmarked) [7-2, 2-((1-(7-methyl-4-oxo-2-(p-tolyl)-4H-pyrido[1,2-a]pyrimidin-9-yl)ethyl)amino)benzoic acid] | – | – | –
4 | 14.1 | 304 | > 10000 | > 10000 | – | – | Cc1cc([C@@H](C)Nc2ccc(Cl)nc2C(=O)O)c2nc(N3CCC(F)(F)CC3)c(C#N)c(=O)n2c1 [Example 10-67, (R)-6-chloro-3-((1-(3-cyano-2-(4,4-difluoropiperidin-1-yl)-7-methyl-4-oxo-4H-pyrido[1,2-a]pyrimidin-9-yl)ethyl)amino)picolinic acid] | – | – | –
5 | 4.84 | 566 | > 10000 | 8650 | – | – | Cc1cc([C@@H](C)Nc2cccc(F)c2C(=O)O)c2nc(N3CCC(F)(F)CC3)c(C#N)c(=O)n2c1 [Example 10-62, (R)-2-((1-(3-cyano-2-(4,4-difluoropiperidin-1-yl)-7-methyl-4-oxo-4H-pyrido[1,2-a]pyrimidin-9-yl)ethyl)amino)-6-fluorobenzoic acid] | – | – | –
6 | > 10000 | 4890 | > 10000 | > 10000 | – | – | Cc1cc([C@@H](C)Nc2ccccc2C(=O)O)c2nc(N3CCCCC3)c(C(F)(F)F)c(=O)n2c1 [Example 10-71, (R)-2-((1-(7-methyl-4-oxo-2-(piperidin-1-yl)-3-(trifluoromethyl)-4H-pyrido[1,2-a]pyrimidin-9-yl)ethyl)amino)benzoic acid] | – | – | –
7 | 3.23 | 120 | > 10000 | 1460 | – | – | Cc1cc([C@@H](C)Nc2ccccc2C(=O)O)c2nc(N3CCCCC3)c(C)c(=O)n2c1 [Example 10-74, (R)-2-((1-(3,7-dimethyl-4-oxo-2-(piperidin-1-yl)-4H-pyrido[1,2-a]pyrimidin-9-yl)ethyl)amino)benzoic acid] | – | – | –
8 | 144 | 3720 | > 10000 | > 10000 | – | – | Cc1cc([C@@H](C)Nc2nccnc2C(=O)O)c2nc(N3CCC(F)(F)CC3)c(C#N)c(=O)n2c1 [Example 10-63, (R)-3-((1-(3-cyano-2-(4,4-difluoropiperidin-1-yl)-7-methyl-4-oxo-4H-pyrido[1,2-a]pyrimidin-9-yl)ethyl)amino)pyrazine-2-carboxylic acid] | – | – | –
9 | 3.29 | 135 | > 10000 | 1030 | – | – | Cc1cc([C@@H](C)Nc2ccccc2C(=O)O)c2nc(N3CCCC3)c(C#N)c(=O)n2c1 [Example 10-73, (R)-2-((1-(3-cyano-7-methyl-4-oxo-2-(pyrrolidin-1-yl)-4H-pyrido[1,2-a]pyrimidin-9-yl)ethyl)amino)benzoic acid] | – | – | –
10 | 0.978 | 86.2 | 9940 | 2260 | – | – | Cc1cc([C@@H](C)Nc2ccccc2C(=O)O)c2nc(N3CCCCC3)c(C#N)c(=O)n2c1 [Example 10-99, (R)-2-((1-(3-cyano-7-methyl-4-oxo-2-(piperidin-1-yl)-4H-pyrido[1,2-a]pyrimidin-9-yl)ethyl)amino)benzoic acid] | – | – | –
11 | 3.25 | 246 | > 10000 | 681 | – | – | Cc1cc([C@@H](C)Nc2ccccc2C(=O)O)c2nc(C3CCC(F)(F)CC3)c(C#N)c(=O)n2c1 [Example 10-65, (R)-2-((1-(3-cyano-2-(4,4-difluorocyclohexyl)-7-methyl-4-oxo-4H-pyrido[1,2-a]pyrimidin-9-yl)ethyl)amino)benzoic acid] | – | – | –
12 | 1370 | > 10000 | > 10000 | > 10000 | – | – | Cc1cc([C@@H](C)Nc2ccccc2C(=O)O)c2nc(N3CC4(C3)CC(F)(F)C4)c(C#N)c(=O)n2c1 [Example 10-66, (R)-2-((1-(3-cyano-2-(6,6-difluoro-2-azaspiro[3.3]heptan-2-yl)-7-methyl-4-oxo-4H-pyrido[1,2-a]pyrimidin-9-yl)ethyl)amino)benzoic acid] | – | – | –
13 | 1.21 | – | – | – | 29.3 | 7450 | CCc1cc([C@@H](C)Nc2ccccc2C(=O)O)c2nc(N3Cc4ccccc4C3)c(C#N)c(=O)n2c1 [Example 10-10, (R)-2-((1-(3-cyano-7-ethyl-2-(isoindolin-2-yl)-4-oxo-4H-pyrido[1,2-a]pyrimidin-9-yl)ethyl)amino)benzoic acid] | – | – | –
14 | 2.12 | 85.8 | > 10000 | – | – | – | Cc1cc([C@@H](C)Nc2ccccc2C(=O)O)c2nc(N3CCN(c4ccccc4)CC3)c(C#N)c(=O)n2c1 [Example 10-98, (R)-2-((1-(3-cyano-7-methyl-4-oxo-2-(4-phenylpiperazin-1-yl)-4H-pyrido[1,2-a]pyrimidin-9-yl)ethyl)amino)benzoic acid] | – | – | –
15 | 4.02 | 73.3 | > 10000 | – | – | – | Cc1cc([C@@H](C)Nc2ccccc2C(=O)O)c2nc(N3CCC(c4ccn(C)n4)CC3)c(C)c(=O)n2c1 [Example 10-58, (R)-2-((1-(3,7-dimethyl-2-(4-(1-methyl-1H-pyrazol-3-yl)piperidin-1-yl)-4-oxo-4H-pyrido[1,2-a]pyrimidin-9-yl)ethyl)amino)benzoic acid] | – | – | –

Row | Compound | IC50 [1, 5] [nM] | IC50 [2, 6] [nM] | IC50 [3, 7] [nM] | IC50 [4] [nM] | IC50 ([2]; T47D (PI3Kα H1047R mutant) cells, CellTiter-Glo, approximately 72 hours, read-out: T47D (H1047R mutant) Viability IC50) [nM] | IC50 ([3]; SKBR3 (PI3Kα wild type) cells, CellTiter-Glo, approximately 72 hours, read-out: SKBR3 (WT) Viability IC50) [nM] | IC50 ([1]; read-out: T47D pAKT (H1047R mutant) IC50 (nM)) [nM] | IC50 ([2]; Homo sapiens, T47D, 72 h, read-out: T47D (H1047R mutant) Viability IC50 (nM)) [nM] | IC50 ([3]; Homo sapiens, SK-BR-3, 72 h, read-out: SKBR3 (WT) Viability IC50 (nM)) [nM]
16 | Cc1cc([C@@H](C)Nc2ccccc2C(=O)O)c2nc(N3CC4CC(C3)C4(F)F)c(C#N)c(=O)n2c1 [Example 10-69, 2-(((1R)-1-(3-cyano-2-(6,6-difluoro-3-azabicyclo[3.1.1]heptan-3-yl)-7-methyl-4-oxo-4H-pyrido[1,2-a]pyrimidin-9-yl)ethyl)amino)benzoic acid] | 3.69 | 165 | > 10000 | 1800 | – | – | – | – | –
17 | Cc1cc(C(C)Nc2ccccc2C(=O)O)c2nc(N3CCCCC3)cc(=O)n2c1 (centres unmarked) [Example 2, 2-((1-(7-methyl-4-oxo-2-(piperidin-1-yl)-4H-pyrido[1,2-a]pyrimidin-9-yl)ethyl)amino) benzoic acid] | – | – | – | > 10000 | – | – | 14 | 2970 | > 10000
